According to patent US7709492B2, “Pyrazolo-[4,3-e]-1,2,4-triazolo-[1,5-c]-pyrimidine adenosine A2a receptor antagonists” (Schering Corporation, priority 2004, dated 2010):

Biological target: T1, Human A2a Adenosine Receptor (Homo sapiens, UniProt P29274)
T1 construct: purchased Receptor Biology, Inc., Beltsville, Md; RB-HA2a
Assay: Human adenosine A2a receptor competition binding assay
Details: [3H]-SCH 58261 displacement, human A2a membranes
Method: Human Adenosine A2a and A1 Receptor Competition Binding Assay Protocol
A2a: Human A2a Adenosine Receptor membranes, Catalog #RB-HA2a, Receptor Biology, Inc., Beltsville, Md. Dilute to 17 μg/100 μl in membrane dilution buffer (see below).
Membrane dilution buffer: Dulbecco's Phosphate Buffered Saline (Gibco/BRL)+10 mM MgCl2.
Compound Dilution Buffer: Dulbecco's Phosphate Buffered Saline (Gibco/BRL)+10 mM MgCl2 supplemented with 1.6 mg/ml methyl cellulose and 16% DMSO. Prepared fresh daily.
A2a: [3H]-SCH 58261, custom synthesis, AmershamPharmacia Biotech, Piscataway, N.J. Stock is prepared at 1 nM in membrane dilution buffer. Final assay concentration is 0.5 nM.
A2a: To determine non-specific binding, add 100 nM CGS 15923 (RBI, Natick, Mass.). Working stock is prepared at 400 nM in compound dilution buffer.
Prepare 1 mM stock solutions of compounds in 100% DMSO. Dilute in compound dilution buffer. Test at 10 concentrations ranging from 3 μM to 30 pM. Prepare working solutions at 4× final concentration in compound dilution buffer.
Perform assays in deep well 96 well plates. Total assay volume is 200 μl. Add 50 μl compound dilution buffer (total ligand binding) or 50 μl CGS 15923 working solution (A2a non-specific binding) or 50 μl, NECA working solution (A1 non-specific binding) or 50 μl of drug working solution. Add 50 μl ligand stock ([3H]-SCH 58261 for A2a, [3H]-DPCPX for A1). […]

T1 sequence (P29274 whole entry): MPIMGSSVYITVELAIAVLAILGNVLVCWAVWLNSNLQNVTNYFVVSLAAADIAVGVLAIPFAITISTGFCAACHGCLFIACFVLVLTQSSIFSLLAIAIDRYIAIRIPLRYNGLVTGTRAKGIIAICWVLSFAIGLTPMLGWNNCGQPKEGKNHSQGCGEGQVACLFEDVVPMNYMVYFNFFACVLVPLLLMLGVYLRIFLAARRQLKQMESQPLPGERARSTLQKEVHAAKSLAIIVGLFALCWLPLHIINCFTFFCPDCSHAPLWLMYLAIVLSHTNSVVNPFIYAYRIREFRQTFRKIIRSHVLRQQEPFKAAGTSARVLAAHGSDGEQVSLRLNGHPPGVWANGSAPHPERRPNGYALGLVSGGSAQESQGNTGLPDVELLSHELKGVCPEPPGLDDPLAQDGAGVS

**Q.** For `Nc1nc2c(cnn2CCN2CCN(c3cc(-c4ncco4)ccc3F)CC2)c2nc(-c3ccccn3)nn12` [Example 12-31], which Ki is on record?
**A.** 300 pM
